For experiment [1], the system named is SF-268. Put plainly: MTT assay at 72 hr (24 hr drug exposure, wash, 48 hr). It is filed as cell-based. How it is done: (§1) Exposition of 24hr to drug, washed, and incubated for another 48hr (total of 72hr assay)
Experiment [2] deals with CCRF-CEM. Put plainly: 3H-TdR incorporation at 72 hr (24 hr drug exposure, wash, 48 hr). It is filed as cell-based. The settings on record: read-out: IC50 in μM (3H-TdR incorporation at 72 hr) CCRF-CEM 24 h, CCRF-CEM T-cell Leukemia, 72 hr assay. As for the experimental part:
(§2) Exposition of 24 hr to drug, wash, incubated for another 48 hr (total of 72 hr assay)
(§3) (3H-Thymidine Incorporation Assay)

Experiment [3] has as its system H-460. Kind of experiment: MTT assay at 72 hr (24 hr drug exposure, wash, 48 hr). The experiment is classed as cell-based. As for the experimental part: as §1
In experiment [4] the test system is MCF-7. The experiment is described as above. The experiment is classed as cell-based. How it is done:
as §1

Experiment [5] has as its system CCRF-CEM. Kind of experiment: MTT or WST-1 assay at 72 hr (24 hr drug exposure, wash, 48 hr). The experiment is classed as cell-based. As for the experimental part:
as §1
Background: Tetrazolium assays rely on reduction of a dye to a coloured formazan, in cell work by metabolically active cells.

For experiment [6], the system named is CEM/dCK-. Described as above. It is filed as cell-based. How it is done: as §1
Experiment [7] deals with H-460. Put plainly: 3H-TdR incorporation at 72 hr (24 hr drug exposure, wash, 48 hr). The settings on record: Homo sapiens, NCI-H460, read-out: IC50 in μM (3H-TdR incorporation at 72 hr) H-460 24 h, H-460 Human Lung Carcinoma, 72 hr assay. It is filed as cell-based, Human. How it is done:
as §2, §3

The subject of experiment [8] is MCF-7. The description is as above. It is filed as cell-based, Human. The following applies: Homo sapiens, MCF7, read-out: IC50 in μM (3H-TdR incorporation at 72 hr) MCF-7 24 h, MCF-7 Human Breast Carcinoma, 72 hr assay. As for the experimental part:
as §2, §3

Experiment [9] deals with SF-268. The experiment is described as above. The settings on record: Homo sapiens, SF-268, read-out: IC50 in μM (3H-TdR incorporation at 72 hr) SF-268 24 h, SF-268 Human Central Nervous System Tumor; 24 h drug exposure, 72 hr assay. It is filed as cell-based, Human. As for the experimental part: as §2, §3
In experiment [10] the test system is CEM/dCK-. The description is as above. It is filed as cell-based. The following applies: for IC50: Homo sapiens, CCRF-CEM, read-out: IC50 in μM (3H-TdR incorporation at 72 hr) CEM/dCK- 24 h, CCRF-CEM deoxycytidine kinase-deficient, 24 h drug exposure, 72 hr assay; for Factor* (Resistance Factor = Ratio of dCK- on Wild-type CCRF-CEM): ratio of IC50 CEM/dCK- to IC50 CCRF-CEM. As for the experimental part: as §2, §3

Where [11] appears, read: read-out: IC50 SF-268 24 h, MTT at 72 hr, 24 h exposure, single experiment.
The mark [12] stands for this setting: Homo sapiens, NCI-H460, read-out: IC50 H-460 24 h, MTT at 72 hr, 24 h exposure, single experiment.
Where [13] appears, read: Homo sapiens, MCF7, read-out: IC50 MCF-7 24 h, MTT at 72 hr, 24 h exposure, single experiment.
Setting [14] is: Homo sapiens, SF-268, read-out: IC50 SF-268 24 h, MTT at 72 hr, 24 h exposure, single experiment.
The mark [15] stands for this setting: Homo sapiens, CCRF-CEM, read-out: IC50 CCRF-CEM 24 h, MMT or WST-1 at 72 hr, 24 h exposure, single experiment.
Where [16] appears, read: CEM/dCK- versus CCRF-CEM, single experiment.
Setting [17] is: read-out: IC50 CEM/dCK- 24 h, MMT or WST-1 at 72 hr, 24 h exposure, single experiment.
The mark [18] stands for this setting: read-out: IC50 MCF-7 24 h, MTT at 72 hr, 24 h exposure, single experiment.
Where [19] appears, read: read-out: IC50 CCRF-CEM 24 h, MMT or WST-1 at 72 hr, 24 h exposure, single experiment.

The structures appear in SMILES notation. Where “and” joins values, the source holds several entries; their conditions need not be identical. Equal values may be shown once.

As to `CCCCC[C@]12CC[C@](C(=O)OC[C@H]3OC[C@@H](n4ccc(N)nc4=O)O3)(CC1)CC2` [Compound 211, 4-PENTYL- BICYCLO[2.2.2]OCTANE-1- CARBOXYLIC ACID 4-(4- AMINO-2-OXO-2H- PYRIMIDIN-1-YL)- [1,3]DIOXOLAN-2-YL METHYL ESTER], the IC50 came out at 0.034 µM in experiment [1] (setting [11]); 0.027 nM in [2] (Homo sapiens, CCRF-CEM); 0.053 nM in [2].
For `CCCCC(C)(C)C(=O)OC[C@H]1OC[C@@H](n2ccc(N)nc2=O)O1.Cl` (stereo in doubt) [Compound 107, 2,2-DIMETHYLHEXANOIC ACID 4-(4-AMINO-2-OXO- 2H-PYRIMIDIN-1-YL)-1,3- DIOXOLAN-2-YLMETHYL ESTER HYDROCHLORIDE], the IC50 turned out to be 0.27 µM in experiment [3] (setting [12]); 0.25 µM in experiment [4] (setting [13]); 3.4 µM in [1] (setting [14]); 0.024 µM in experiment [5] (setting [15]); 49 µM in experiment [6] (setting [17]). Moreover, the “Resistance Factor*” value in experiment [6] (setting [16]) turned out to be 2.042.
Take `Nc1ccn([C@@H]2CO[C@H](COC(=O)C3(c4ccccc4)CC3)O2)c(=O)n1` [Compound 223, 1-PHENYL- CYCLOPROPANECARBOXYLIC ACID 4-(4-AMINO-2-OXO- 2H-PYRIMIDIN-1-YL)- [1,3]DIOXOLAN-2-YL METHYL ESTER]: the IC50 in experiment [4] (setting [13]) was 1.7 µM; in [4] (setting [18]), 2.1 µM and 1.4 µM; in [6] (setting [17]), over 100 µM; in experiment [7], 0.035 µM; in [8] it was 0.15 µM; in experiment [9], 0.25 µM. Besides, the IC50 in [2] (Homo sapiens, CCRF-CEM) is 62 nM; in experiment [10], over 100 µM. The “Factor* (Resistance Factor = Ratio of dCK- on Wild-type CCRF-CEM)” value in experiment [10] is reported as over 1613.
Turning to `COc1ccc(C(OC[C@H]2OC[C@@H](n3ccc(N)nc3=O)O2)(c2ccc(OC)cc2)c2ccc(OC)cc2)cc1` [Compound 185, 4-AMINO-1-{2-[TRIS-(4- METHOXY-PHENYL)- METHOXYMETHYL]- [1,3]DIOXOLAN-4-YL}-1H- PYRIMIDIN-2-ONE], the IC50 was found to be 1.4 µM in experiment [4] (setting [13]); 2.3 µM in experiment [4] (setting [18]); 0.18 µM in [5] (setting [19]); 12 µM in experiment [6] (read-out: IC50 CEM/dCK- 24 h; MMT or WST-1 at 72 hr, 24 h exposure, single experiment); 0.059 µM in experiment [7]; 0.064 µM in [8]. For the same molecule, the IC50 in experiment [9] is 0.054 µM; in experiment [2] (Homo sapiens, CCRF-CEM), 66 nM; in experiment [10], 17 µM. Further, the “Resistance Factor*” value in experiment [6] (setting [16]) turned out to be 67. Moreover, the “Factor* (Resistance Factor = Ratio of dCK- on Wild-type CCRF-CEM)” value in experiment [10] is recorded as 258.
For the molecule `CC(C)C[C@H](N)C(=O)Nc1ccn([C@@H]2CO[C@H](CO)O2)c(=O)n1` [Compound 257, 2-AMINO-4-METHYL- PENTANOIC ACID [1-(2- HYDROXYMETHYL- [1,3]DIOXOLAN-4-YL)-2- OXO-1,2-DIHYDRO- PYRIMIDIN-4-YL]-AMIDE], the IC50 in [4] (setting [13]) was 36 µM; in experiment [4] (setting [18]), 21 µM; in [1] (setting [14]) it was over 100 µM; in experiment [5] (setting [15]), 4.1 µM; in experiment [5] (setting [19]) it was 5.4 µM; in experiment [6] (setting [17]), over 100 µM. The IC50 in experiment [7] was 9.7 µM; in [8], 5 µM; in experiment [9] it was 1.6 µM; in experiment [2] (Homo sapiens, CCRF-CEM), 4200 nM; in [10], over 100 µM. In addition, the “Factor* (Resistance Factor = Ratio of dCK- on Wild-type CCRF-CEM)” value in experiment [10] is over 24.
Regarding `CCCCC[C@]12CC[C@](C(=O)Nc3ccn([C@@H]4CO[C@H](CO)O4)c(=O)n3)(CC1)CC2` [Compound 210, 4-Pentyl-Bicyclo[2.2.2]Octane-1-Carboxylic Acid [1-(2-Hydroxymethyl-[1,3]Dioxolan-4-Yl)-2-Oxo-1,2-Dihydro-Pyrimidin-4-Yl]-Amide], the IC50 in experiment [1] (setting [14]) is at least 100 µM; in experiment [1] (setting [11]) it was > 100 µM and 51 µM; in experiment [7], 0.0026 µM; in experiment [8] it was 0.005 µM; in experiment [9], 0.26 µM; in experiment [10], over 100 µM.
Consider `CC(C)C[C@H](NC(=O)[C@H](C)N)C(=O)Nc1ccn([C@@H]2CO[C@H](CO)O2)c(=O)n1.O=C(O)C(F)(F)F.O=C(O)C(F)(F)F` [Compound 265, 2-(2-AMINO- PROPIONYLAMINO)-4- METHYL-PENTANOIC ACID [1-(2-HYDROXYMETHYL- [1,3]DIOXOLAN-4-YL)-2- OXO-1,2-DIHYDRO- PYRIMIDIN-4-YL]-AMIDE, BIS TRIFLUOROACETIC ACID SALT], for which the IC50 in experiment [3] (setting [12]) is over 100 µM; in [4] (setting [13]) it was 77 µM; in experiment [1] (setting [14]), over 100 µM; in experiment [5] (setting [15]) it was 30 µM; in [6] (setting [17]) it was over 100 µM. For the same molecule, in experiment [6] (setting [16]), the “Resistance Factor*” value is recorded as over 3.
For the molecule `CC(C)C[C@H](NC(=O)OCc1ccccc1)C(=O)N[C@@H](C)C(=O)N[C@@H](CC(C)C)C(=O)Nc1ccn([C@@H]2CO[C@H](CO)O2)c(=O)n1` [Compound 267, [1-(1-{1-[1-(2- HYDROXYMETHYL- [1,3]DIOXOLAN-4-YL)-2- OXO-1,2-DIHYDRO- PYRIMIDIN-4- YLCARBAMOYL]-3-METHYL- BUTYLCARBAMOYL}- ETHYLCARBAMOYL)-3- METHYL-BUTYL]-CARBAMIC ACID BENZYL ESTER], the IC50 was 93 µM in [3] (setting [12]); 34 µM in experiment [4] (setting [13]); over 10 µM in [1] (setting [14]); 2.9 µM in [5] (setting [15]); over 10 µM in experiment [6] (setting [17]). The “Resistance Factor*” value in experiment [6] (setting [16]) is listed as over 3.
For `CC(C)C[C@H](NC(=O)[C@H](C)NC(=O)OC(C)(C)C)C(=O)Nc1ccn([C@@H]2CO[C@H](CO)O2)c(=O)n1` [Compound 263, (1-{1-[1-(2- HYDROXYMETHYL- [1,3]DIOXOLAN-4-YL)-2- OXO-1,2-DIHYDRO- PYRIMIDIN-4- YLCARBANOYL]-3-METHYL- BUTYLCARBAMOYL}-ETHYL)- CARBAMIC ACID TERT- BUTYL ESTER], the IC50 is 66 µM in experiment [3] (setting [12]); over 100 µM in experiment [3] (read-out: IC50 H-460 24 h, MTT at 72 hr, 24 h exposure, single experiment); over 100 µM in [1] (setting [14]); 19 µM in experiment [5] (setting [15]); 14 µM in experiment [5] (setting [19]); over 100 µM in experiment [6] (setting [17]).
With `CC(C)C(C(=O)OC[C@H]1OC[C@@H](n2ccc(N)nc2=O)O1)c1ccccc1` (mixture of isomers) [Compound 262, 3-METHYL-2-PHENYL- BUTYRIC ACID 4-(4- AMINO-2-OXO-2H- PYRIMIDIN-1-YL)- [1,3]DIOXOLAN-2- YLMETHYL ESTER], the IC50 was 0.9 µM in experiment [3] (setting [12]); 16 µM in [4] (setting [13]); over 100 µM in experiment [1] (setting [14]); 0.88 µM in experiment [5] (setting [15]); over 100 µM in experiment [6] (setting [17]). Further, the “Resistance Factor*” value in experiment [6] (setting [16]) is recorded as over 114.
